# Laboratory results as given in patent US8952024B2, “Herbicidal pyrimidone derivatives” (E I du Pont de Nemours and Company, priority 2009, dated 2015).
# Legend:
# Experiment in all cases: Test B pre-/postemergence plant response
# Assay type in all cases: in vivo
# [1] = tested on: Surinam grass (Brachiaria decumbens)
# Summary of the method: (§1)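 Greenhouse herbicide screen. Pre- and postemergence (1- to 4-leaf) spray of compound in solvent/surfactant mixture; loam–sand soil for pre, peat/vermiculite medium for post. Visual control rating 0–100 at 13 to 15 days after treatment.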
# [2] = tested on: woolly cupgrass (Eriochloa villosa)
# Summary of the method: as §1
# [3] = tested on: downy bromegrass (Bromus tectorum)
# Summary of the method: as §1
# [4] = tested on: lambsquarters (Chenopodium album)
# Summary of the method: as §1
# [5] = tested on: green foxtail (Setaria viridis)
# Summary of the method: as §1
# kochia (Kochia scoparia) = tested on: kochia (Kochia scoparia)
# Summary of the method: as §1
# [6] = tested on: ragweed (common ragweed, Ambrosia elatior)
# Summary of the method: as §1
# [7] = tested on: johnsongrass (Sorghum halepense)
# Summary of the method: as §1
# [8] = tested on: goosegrass (Eleusine indica)
# Summary of the method: as §1
# [9] = tested on: Italian ryegrass (Lolium multiflorum)
# Summary of the method: as §1
# [10] = tested on: large crabgrass (Digitaria sanguinalis)
# Summary of the method: as §1
# [11] = tested on: bermudagrass (Cynodon dactylon)
# Summary of the method: as §1
# [12] = tested on: blackgrass (Alopecurus myosuroides)
# Summary of the method: as §1
# [13] = tested on: giant foxtail (Setaria faberii)
# Summary of the method: as §1
# [14] = tested on: velvetleaf (Abutilon theophrasti)
# Summary of the method: as §1
# corn (Zea mays) = tested on: corn (Zea mays)
# Summary of the method: as §1
# [15] = tested on: yellow nutsedge (Cyperus esculentus)
# Summary of the method: as §1
# [16] = 31 g ai/ha, postemergence, scale 0 to 100, 0 is no effect, 100 is complete control
# [17] = Postemergence, 62 g ai/ha, scale 0 (no effect) to 100 (complete control), 13 to 15 days
# [18] = Postemergence, 125 g ai/ha, visual rating after 13 to 15 days, scale 0 (no effect) to 100 (complete control)
# [19] = Postemergence, 250 g ai/ha, scale 0 to 100 (0 no effect, 100 complete control)
# [20] = Preemergence, 31 g ai/ha, scale 0 to 100 (0 no effect, 100 complete control)
# [21] = Preemergence, 62 g ai/ha, scale 0 to 100, 0 no effect, 100 complete control
# [22] = Preemergence, 125 g ai/ha, scale 0 to 100, 0 no effect, 100 complete control
# [23] = 250 g ai/ha, Preemergence, 0 to 100 scale
smiles,measurement,setting,value
CCCCc1ncc(C(=O)C2=C(O)CCCC2=O)c(=O)n1-c1ccccc1C [Compound 62],"Plant response rating, Surinam Grass",[1]; [16],20
same,"Plant response rating, Surinam Grass",[1]; [17],45
same,"Plant response rating, Surinam Grass",[1]; [18],65
same,"Plant response rating, Surinam Grass",[1]; [19],70
same,"Plant response rating, Surinam Grass",[1]; [20],5
same,"Plant response rating, Surinam Grass",[1]; [21],20
same,"Plant response rating, Surinam Grass",[1]; [22],25
same,"Plant response rating, Cupgrass, Woolly",[2]; [16],55
same,"Plant response rating, Cupgrass, Woolly",[2]; [23],10
same,"Plant response rating, Cupgrass, Woolly",[2]; [17],55
same,"Plant response rating, Cupgrass, Woolly",[2]; [18],60
same,"Plant response rating, Cupgrass, Woolly",[2]; [19],65
same,"Plant response rating, Cupgrass, Woolly",[2]; [20],0
same,"Plant response rating, Cupgrass, Woolly",[2]; [21],0
same,"Plant response rating, Cupgrass, Woolly",[2]; [22],5
same,"Plant response rating, Bromegrass, Downy",[3]; [16],30
same,"Plant response rating, Bromegrass, Downy",[3]; [23],0
same,"Plant response rating, Bromegrass, Downy",[3]; [17],45
same,"Plant response rating, Bromegrass, Downy",[3]; [18],50
same,"Plant response rating, Bromegrass, Downy",[3]; [19],50
same,"Plant response rating, Bromegrass, Downy",[3]; [20],0
same,"Plant response rating, Bromegrass, Downy",[3]; [21],0
same,"Plant response rating, Bromegrass, Downy",[3]; [22],0
same,"Plant response rating, Lambsquarters",[4]; [16],85
same,"Plant response rating, Lambsquarters",[4]; [23],100
same,"Plant response rating, Lambsquarters",[4]; [17],95
same,"Plant response rating, Lambsquarters",[4]; [18],98
same,"Plant response rating, Lambsquarters",[4]; [19],100
same,"Plant response rating, Lambsquarters",[4]; [20],98
same,"Plant response rating, Lambsquarters",[4]; [21],98
same,"Plant response rating, Lambsquarters",[4]; [22],100
same,"Plant response rating, Foxtail, Green",[5]; [16],40
same,"Plant response rating, Foxtail, Green",[5]; [23],10
same,"Plant response rating, Foxtail, Green",[5]; [17],70
same,"Plant response rating, Foxtail, Green",[5]; [18],80
same,"Plant response rating, Foxtail, Green",[5]; [19],85
same,"Plant response rating, Foxtail, Green",[5]; [20],0
same,"Plant response rating, Foxtail, Green",[5]; [21],0
same,"Plant response rating, Foxtail, Green",[5]; [22],10
same,"Plant response rating, Kochia",kochia (Kochia scoparia); [16],10
same,"Plant response rating, Kochia",kochia (Kochia scoparia); [23],100
same,"Plant response rating, Kochia",kochia (Kochia scoparia); [17],25
same,"Plant response rating, Kochia",kochia (Kochia scoparia); [18],60
same,"Plant response rating, Kochia",kochia (Kochia scoparia); [19],80
same,"Plant response rating, Kochia",kochia (Kochia scoparia); [20],98
same,"Plant response rating, Kochia",kochia (Kochia scoparia); [21],100
same,"Plant response rating, Kochia",kochia (Kochia scoparia); [22],100
same,"Plant response rating, Ragweed",[6]; [16],70
same,"Plant response rating, Ragweed",[6]; [17],75
same,"Plant response rating, Ragweed",[6]; [18],75
same,"Plant response rating, Ragweed",[6]; [19],80
same,"Plant response rating, Ragweed",[6]; [20],0
same,"Plant response rating, Ragweed",[6]; [21],20
same,"Plant response rating, Ragweed",[6]; [22],45
same,"Plant response rating, Johnsongrass",[7]; [16],0
same,"Plant response rating, Johnsongrass",[7]; [17],0
same,"Plant response rating, Johnsongrass",[7]; [18],0
same,"Plant response rating, Johnsongrass",[7]; [19],10
same,"Plant response rating, Johnsongrass",[7]; [20],0
same,"Plant response rating, Johnsongrass",[7]; [21],0
same,"Plant response rating, Johnsongrass",[7]; [22],0
same,"Plant response rating, Goosegrass",[8]; [16],65
same,"Plant response rating, Goosegrass",[8]; [23],98
same,"Plant response rating, Goosegrass",[8]; [17],65
same,"Plant response rating, Goosegrass",[8]; [18],65
same,"Plant response rating, Goosegrass",[8]; [19],75
same,"Plant response rating, Goosegrass",[8]; [20],15
same,"Plant response rating, Goosegrass",[8]; [21],95
same,"Plant response rating, Goosegrass",[8]; [22],98
same,"Plant response rating, Ryegrass, Italian",[9]; [16],0
same,"Plant response rating, Ryegrass, Italian",[9]; [17],5
same,"Plant response rating, Ryegrass, Italian",[9]; [18],50
same,"Plant response rating, Ryegrass, Italian",[9]; [19],50
same,"Plant response rating, Ryegrass, Italian",[9]; [20],0
same,"Plant response rating, Ryegrass, Italian",[9]; [21],0
same,"Plant response rating, Ryegrass, Italian",[9]; [22],0
same,"Plant response rating, Crabgrass, Large",[10]; [16],55
same,"Plant response rating, Crabgrass, Large",[10]; [23],98
same,"Plant response rating, Crabgrass, Large",[10]; [17],75
same,"Plant response rating, Crabgrass, Large",[10]; [18],80
same,"Plant response rating, Crabgrass, Large",[10]; [19],85
same,"Plant response rating, Crabgrass, Large",[10]; [20],0
same,"Plant response rating, Crabgrass, Large",[10]; [21],50
same,"Plant response rating, Crabgrass, Large",[10]; [22],80
same,"Plant response rating, Bermudagrass",[11]; [23],100
same,"Plant response rating, Bermudagrass",[11]; [17],80
same,"Plant response rating, Bermudagrass",[11]; [18],85
same,"Plant response rating, Bermudagrass",[11]; [19],90
same,"Plant response rating, Bermudagrass",[11]; [20],20
same,"Plant response rating, Bermudagrass",[11]; [21],75
same,"Plant response rating, Bermudagrass",[11]; [22],95
same,"Plant response rating, Blackgrass",[12]; [16],15
same,"Plant response rating, Blackgrass",[12]; [23],0
same,"Plant response rating, Blackgrass",[12]; [17],30
same,"Plant response rating, Blackgrass",[12]; [18],30
same,"Plant response rating, Blackgrass",[12]; [19],50
same,"Plant response rating, Blackgrass",[12]; [20],0
same,"Plant response rating, Blackgrass",[12]; [21],0
same,"Plant response rating, Blackgrass",[12]; [22],0
same,"Plant response rating, Foxtail, Giant",[13]; [16],55
same,"Plant response rating, Foxtail, Giant",[13]; [23],20
same,"Plant response rating, Foxtail, Giant",[13]; [17],65
same,"Plant response rating, Foxtail, Giant",[13]; [18],75
same,"Plant response rating, Foxtail, Giant",[13]; [19],80
same,"Plant response rating, Foxtail, Giant",[13]; [20],0
same,"Plant response rating, Foxtail, Giant",[13]; [21],0
same,"Plant response rating, Foxtail, Giant",[13]; [22],20
same,"Plant response rating, Velvetleaf",[14]; [16],85
same,"Plant response rating, Velvetleaf",[14]; [17],95
same,"Plant response rating, Velvetleaf",[14]; [18],95
same,"Plant response rating, Velvetleaf",[14]; [19],100
same,"Plant response rating, Velvetleaf",[14]; [20],75
same,"Plant response rating, Velvetleaf",[14]; [21],75
same,"Plant response rating, Velvetleaf",[14]; [22],95
same,"Plant response rating, Corn",corn (Zea mays); [16],70
same,"Plant response rating, Corn",corn (Zea mays); [17],70
same,"Plant response rating, Corn",corn (Zea mays); [18],75
same,"Plant response rating, Corn",corn (Zea mays); [19],80
same,"Plant response rating, Corn",corn (Zea mays); [20],0
same,"Plant response rating, Corn",corn (Zea mays); [22],0
same,"Plant response rating, Nutsedge, Yellow",[15]; [16],15
same,"Plant response rating, Nutsedge, Yellow",[15]; [17],25
same,"Plant response rating, Nutsedge, Yellow",[15]; [18],35
same,"Plant response rating, Nutsedge, Yellow",[15]; [19],55
same,"Plant response rating, Nutsedge, Yellow",[15]; [20],15
same,"Plant response rating, Nutsedge, Yellow",[15]; [21],25
same,"Plant response rating, Nutsedge, Yellow",[15]; [22],45
